Results taken from ChEMBL document CHEMBL3727364, “Resorcinol n-aryl amide compounds, for use as pyruvate dehydrogenase kinase inhibitors” (2015).

Key:
[1] = target: Pyruvate dehydrogenase kinase (Homo sapiens, UniProt Q15119+Q15120+Q16654+Q15118); experiment: Inhibition of pyruvate dehydrogenase kinase in human PC3 cells incubated for 90 mins by phospho(Ser293)E1alpha MSP ELISA method; type: cell-based; details: pc-3
[2] = target: [Pyruvate dehydrogenase (acetyl-transferring)] kinase isozyme 1, mitochondrial (Homo sapiens, UniProt Q15118); experiment: Binding affinity to pyruvate dehydrogenase kinase 1 (unknown origin) incubated for 90 mins by VER-00160364 probe based fluorescence polarization assay
[Pyruvate dehydrogenase (acetyl-transferring)] kinase isozyme 1, mitochondrial, sequence (Q15118 whole entry): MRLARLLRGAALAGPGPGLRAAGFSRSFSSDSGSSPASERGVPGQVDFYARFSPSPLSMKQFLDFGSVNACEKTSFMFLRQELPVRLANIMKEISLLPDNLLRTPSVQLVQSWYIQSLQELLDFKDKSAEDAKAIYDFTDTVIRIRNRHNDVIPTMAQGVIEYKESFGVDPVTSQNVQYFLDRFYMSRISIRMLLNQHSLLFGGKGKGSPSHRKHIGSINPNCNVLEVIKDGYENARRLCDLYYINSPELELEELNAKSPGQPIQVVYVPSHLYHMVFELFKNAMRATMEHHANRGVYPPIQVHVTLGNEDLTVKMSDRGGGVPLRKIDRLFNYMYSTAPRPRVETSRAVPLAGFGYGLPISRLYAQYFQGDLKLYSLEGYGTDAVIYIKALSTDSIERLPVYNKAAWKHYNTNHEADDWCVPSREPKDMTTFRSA

| IC50 [1] | IC50 [2] | SMILES |
| --- | --- | --- |
| 100 nM | – | COC1CCN(Cc2ccc(CN(C(=O)c3ccc(O)cc3O)c3ccc(-c4nc(Cl)ncc4C)cc3)cc2)C1 (centres undefined) |
| 1000 nM | 100 nM | COC(=O)c1nc(-c2ccc(N(Cc3ccsc3)C(=O)c3ccc(O)cc3O)cc2)c2ccccc2n1 |
| 100 nM | – | Cc1cnc(Cl)nc1-c1ccc(N(Cc2ccc(CN3CCC(F)(F)C3)cc2)C(=O)c2ccc(O)cc2O)cc1 |
| 10000 nM | 100 nM | Cc1cc(S(=O)(=O)N2CC(F)(F)C2)cnc1-c1ccc(N(Cc2ccccc2)C(=O)c2ccc(O)cc2O)cc1 |
| 1000 nM | – | Cc1cc(C(=O)N(Cc2ccccc2)c2ccc(C(=O)N(C)C)cc2)c(O)cc1O |
| 1000 nM | – | Cc1cc(S(=O)(=O)NCc2ccccn2)cnc1-c1ccc(N(Cc2ccsc2)C(=O)c2cc(Cl)c(O)cc2O)cc1 |
| 1000 nM | – | Cc1cnc(Cl)nc1-c1ccc(N(Cc2cccc(OCCN3CCOCC3)c2)C(=O)c2ccc(O)cc2O)cc1 |
| 1000 nM | – | Cc1cc(C(=O)N(Cc2ccccc2)c2ccc(C(=O)N(C)Cc3ccc4nccnc4c3)cc2)c(O)cc1O |
| 100 nM | – | Cc1cnc(Cl)nc1-c1ccc(N(Cc2ccc(CNC(=O)c3cccs3)cc2)C(=O)c2ccc(O)cc2O)cc1 |
| 100 nM | – | Cc1cnc(Cl)nc1-c1ccc(N(Cc2cccc(Cl)c2)C(=O)c2ccc(O)cc2O)cc1 |
| 100 nM | – | Cc1cnc(Cl)nc1-c1ccc(N(Cc2ccc(CNC(=O)C3CCC3)cc2)C(=O)c2ccc(O)cc2O)cc1 |
| 1000 nM | – | COc1cnc(Cl)nc1-c1ccc(N(Cc2cnsc2)C(=O)c2ccc(O)cc2O)cc1 |
| 1000 nM | 100 nM | Cc1cc(S(=O)(=O)NCc2cccnc2)cnc1-c1ccc(N(Cc2ccccc2)C(=O)c2cc(Cl)c(O)cc2O)cc1 |
| 1000 nM | 10 nM | Cc1cc(S(=O)(=O)NCc2ccccc2)cnc1-c1ccc(N(Cc2cccnc2)C(=O)c2ccc(O)cc2O)cc1 |
| 1000 nM | – | Cc1cc2ccccc2nc1-c1ccc(N(Cc2ccc(OCCN3CCCC3)cc2)C(=O)c2ccc(O)cc2O)cc1 |
| 1000 nM | – | Cc1cc(S(=O)(=O)NCc2cccs2)cnc1-c1ccc(N(Cc2cnsc2)C(=O)c2ccc(O)cc2O)cc1 |
| 1000 nM | 10 nM | Cc1cc(S(=O)(=O)NCc2cccs2)cnc1-c1ccc(N(Cc2cccnc2)C(=O)c2ccc(O)cc2O)cc1 |
| 1000 nM | 10 nM | Cc1cnc(Cl)nc1-c1ccc(N(Cc2cccnc2)C(=O)c2ccc(O)cc2O)cc1 |
| 1000 nM | – | Cc1cnc(Cl)nc1-c1ccc(N(Cc2cccc(OCCN(C)C)c2)C(=O)c2ccc(O)cc2O)cc1 |

| IC50 [1] | IC50 [2] | SMILES |
| --- | --- | --- |
| 1000 nM | 10 nM | COc1cnc(Cl)nc1-c1ccc(N(Cc2cccnc2)C(=O)c2ccc(O)cc2O)cc1 |
| 1000 nM | 10 nM | CN(Cc1ccc2nccnc2c1)C(=O)c1ccc(N(Cc2ccsc2)C(=O)c2ccc(O)cc2O)cc1 |
| 1000 nM | – | CCN(CC)CCOc1ccc(CN(C(=O)c2ccc(O)cc2O)c2ccc(-c3nc4ccccc4cc3C)cc2)cc1 |
| 1000 nM | – | Cc1cnc(Cl)nc1-c1ccc(N(Cc2cccc(CN(C)C)c2)C(=O)c2ccc(O)cc2O)cc1 |
| 1000 nM | 100 nM | COc1ccc(CN(C)C(=O)c2ccc(N(Cc3cc(C)no3)C(=O)c3cc(Cl)c(O)cc3O)cc2)cc1 |
| 100 nM | – | Cc1cnc(Cl)nc1-c1ccc(N(Cc2ccc(CNC(=O)[C@H](C)NC(=O)OCc3ccccc3)cc2)C(=O)c2ccc(O)cc2O)cc1 |
| 100 nM | 100 nM | COc1cnc(Cl)nc1-c1ccc(N(Cc2ccccc2)C(=O)c2cc(Cl)c(O)cc2O)cc1 |
| 1000 nM | 100 nM | Cc1cc(S(=O)(=O)N2CCOCC2)cnc1-c1ccc(N(Cc2ccsc2)C(=O)c2ccc(O)cc2O)cc1 |
| 1000 nM | – | Cc1cnc(Cl)nc1-c1ccc(N(Cc2cccc(CN3CCCCC3)c2)C(=O)c2ccc(O)cc2O)cc1 |
| 1000 nM | 10 nM | CN(Cc1ccc2ccccc2c1)C(=O)c1ccc(N(Cc2cccnc2)C(=O)c2ccc(O)cc2O)cc1 |
| 1000 nM | – | CCc1cnc(C)nc1-c1ccc(N(Cc2ccsc2)C(=O)c2ccc(O)cc2O)cc1 |
| – | 1000 nM | Cc1cnc(-c2cccc(F)c2)nc1-c1ccc(N(Cc2ccccc2)C(=O)c2ccc(O)cc2O)cc1 |
| – | 10 nM | CC(=O)NCCNS(=O)(=O)c1cnc(-c2ccc(N(Cc3ccccc3)C(=O)c3ccc(O)cc3O)cc2)c(C)c1 |
| – | 100 nM | Cc1nc(-c2ccc(N(Cc3cccnc3)C(=O)c3ccc(O)cc3O)cc2)c2ccccc2n1 |
| – | 1000 nM | Cc1cccnc1-c1ccc(N(Cc2ccccc2)C(=O)c2ccc(O)cc2O)cc1 |
| – | 100 nM | Cc1cc(Cl)nnc1-c1ccc(N(Cc2ccccc2)C(=O)c2ccc(O)cc2O)cc1 |
| – | 100 nM | COCCN(C)S(=O)(=O)c1cnc(-c2ccc(N(Cc3ccccc3)C(=O)c3ccc(O)cc3O)cc2)c(C)c1 |
| – | 10 nM | Cc1cc(S(=O)(=O)NCc2cccs2)cnc1-c1ccc(N(Cc2ccccc2)C(=O)c2ccc(O)cc2O)cc1 |
